Measurements as given in patent US20220401574A1, “CARDIOPROTECTIVE MICROBUBBLE-LIPOSOMAL DRUG COMPLEXES” (UNIVERSITY OF PITTSBURGH - OF THE COMMONWEALTH SYSTEM OF …, priority 2019, published 2022).
Marks after values point to notes of the source that are not given here.

Tests used:
[1] = cited from earlier work
[2] = Biodistribution assessment with Cy5.5 as Dox analog; type: in vivo, mice; settings: organs harvested 3.5 hours after treatment, imaging
Source text: To assess bio-distribution of the drug post ultrasound treatment, Cy5.5 was used as a fluorescent Dox analog, injected i.v. as: Cy5.5-NH2, liposomal Cy5.5, liposomal Cy5.5+MB, Cy5.5LPX, and mice were euthanized 3.5 hrs later. Blood, tumor, spleen, kidney, liver, heart, lung, brain, skin on the back, muscle, femur (bone), and foot were imaged post-mortem and measured using a Xenogen IVIS 200 imaging system.
This example determines the fate of liposomal lipids and Dox after in vivo delivery. […]
To further quantify the distribution of Cy5.5-NH2, tumor, spleen, kidney, liver, heart, and lung were wet-weighed and […] of each tissue specimen were homogenized in 200 μL lysis buffer (50 mM HEPES, 50 mM NaCl, 1% Triton X-100, 5 mM EDTA, and 15 mM DTT) using a sonicator homogenizer (Sonicator Ultrasonic Processor XL, Misonix, Farmingdale, N.Y.) in Eppendorf tubes immersed in an ice-water. […]
50 μL supernatant of each specimen was added in black 384 well plates. Cy5.5-NH2 fluorescence intensity of 3 parallel samples of each organ was determined at Ex/Em 680/710 nm using a plate reader (Infinite 200 PRO, Tecan, Männedorf, Switzerland). […]

[3] = system: MCA 205 murine sarcoma cells; assay: Acute cell viability, trypan blue exclusion assay; type: cell-based; settings: 8 μg/mL, without US
Procedure: (§1) MCA 205 murine sarcoma cells (generously provided by Dr. Walter J. Storkus at the University of Pittsburgh School of Medicine) were cultured in RPMI-1640 (Lonza, Biowhittaker, Basel, Switzerland), supplemented with 10% heat deactivated fetal bovine serum (FBS) and 1% penicillin-streptomycin at 37° C., and sub-cultured every 2 days and used before 8 passage.
MCA 205 cells were suspended (5×10^4 cells in 500 μL media) in capped sterile polystyrene tubes. One of the following formulations was added to the tubes: DoxLPX, LDox, free Dox, ELPX, LDox+MB (e.g, unconjugated LDox and MB). […] Cell viability was evaluated 30 min later using the trypan blue exclusion assay where controls comprised identical tubes not exposed to US.
Live cells and total cell number were counted on a hemocytometer using an inverted microscope (Motic AE21, Scientific Instrument Company, Campbell, Calif.). Acute cell viability was quantified as the number of the live cells (trypan blue negative) divided by the total cell numbers. Each treatment condition was repeated independently three times.

caspase-3 = assay: Caspase-3 activity assay in heart tissue; type: in vivo, mice; settings: heart tissue homogenate
Procedure: Heart tissue was washed twice with cold PBS and lysed in lysis buffer (50 mM HEPES, pH 7.4, with 5 Mm CHAPS, and 5 mM DTT). Tissue lysates were centrifuged at 10,000 rcf for 15 min, and the total protein concentration was measured using a BCA assay kit (Thermo Fisher Scientific, MA). Caspase-3 activity assay was performed in triplicate in 96-well plates. For each protease assay, 200 μL assay buffer (100 mM HEPES, pH 7.2, 10% sucrose, 0.1% CHAPS, 1 Mm Na-EDTA, and 2 mM DTT) containing 50 μM Ac-DEVD-AMC (Enzo life, Farmingdale, N.Y.) was incubated with 50 μg lysate protein at 37° C. for 1 h.
Caspase-3 activity was measured by AMC liberation from Ac-DEVD-AMC substrate at 380/460 nm using a plate reader (Beckman Coulter, DTX-880 Multimode detector, Brea, Calif.). Relative fluorescence of substrate control was subtracted as background emission. Free AMC (Enzo life, NY) was used to make the standard curve: […]

[4] = system: MCA 205 murine sarcoma cells; assay: Long-term cell viability, alamaBlue assay; type: cell-based; settings: without US, 24, 48, 72 h
Procedure: as §1
Control conditions included cells mixed with free Dox, LDox, DoxLPX, ELPX without US treatment and untreated cells. After 1 h incubation, the wells were replaced with 500 μL fresh media. At 24, 48, and 72 h, the cells were incubated in 500 μL media containing 50 μg/mL alamaBlue® for 1 h. Thereafter, 100 μL media in each well was sampled and assayed on a plate reader (Beckman Coulter, DTX-880 Multimode detector, Brea, Calif.) at a wavelength of λex=530 nm and λem=590 nm. The same volume of media containing alamaBlue® was added in empty wells in the same 24-well plate to be used as the baseline absorbance. The percentage of viability at 24, 48, and 72 h was calculated by normalizing to that of untreated cells. As Dox-induced cytotoxicity takes about 48 hours to manifest, acute cytotoxicity (trypan blue assay) was attributed to ultrasound-microbubble interaction. […]

[5] = system: left ventricular function; assay: Assessment of cardiac function by serial echocardiography; type: in vivo, mice
Procedure: Two-dimensional short-axis images were obtained using a high-resolution Micro-Ultrasound system (Vevo 2100, VisualSonics Inc.) in B-mode and M-mode from parasternal short-axis view. […] LV mass index was calculated as LV mass/mouse body weight (g) on the day of measurement. […] Tumor volume and cardiac function were serially evaluated for up to 42 days using ultrasound imaging. Echocardiography was performed every 7 days after the 1st treatment. […] Ejection fraction […] and left ventricular (LV) mass index data within each treatment group were compared to that on day 0 (baseline) within the group using a two-tail t-test. The percentage of mice with changes in ejection fraction, fractional shortening and LV mass index, categorized as mild, moderate or severe, was compared between groups using Chi-square test, and differences between two groups were compared using Fisher's exact test. Kaplan-Meier survival curves were compared between groups using the log-rank test for trend.

MCA205 sarcoma = assay: In vivo tumor treatment: tumor growth and survival; set-up: species or system mice; settings: for Median survival time ± standard deviation: US Pulse 3 for MB formulations
Procedure: This example provides in vivo studies were performed using the Pulse 3 US regime. […] Treatments were infused over 15 min via internal jugular indwelling catheter on Days 0, 3, 7, 10.
Murine sarcoma model. The animal protocols were approved by the University of Pittsburgh Institutional Animal Care and Use Committee and conform to the Policy on Human Care and Use of Laboratory Animals. Female mice were used due to their susceptibility to Dox cardiotoxicity. Lipshultz et al., “Assessment of dexrazoxane as a cardioprotectant in doxorubicin-treated children with high-risk acute lymphoblastic leukaemia: long-term follow-up of a prospective, randomised, multicentre trial” Lancet Oncol. […] Eight-week-old female C57BL/6 mice were obtained from Jackson lab and housed in the animal facility of the Division of Laboratory Animal Resources at the University of Pittsburgh.
The pulse was repeated 500 times, with the pulse train repeated every 2.5 s to allow MB reperfusion into the target area. The overall duty cycle was 10%. The spatial peak temporal average intensity was 0.16 W/cm^2. The US treatment was continued for approximately 3-5 minutes after the intravenous MB infusion was completed to achieve complete MB destruction (e.g., ˜12-15 min total sonication time).
Tumor growth was evaluated by high-resolution 3D US imaging of the tumor using automated scanning (Vevo2100, Visualsonics, Ontario, Canada) at 21 MHz with a 0.2-mm step size between cross-sections. Tumor cross-sections were manually outlined and tumor volumes were calculated from 3D reconstructions of the outlined area. This technique can measure subcutaneous tumors with an irregular shape with an accuracy of ±20 mm^3. Tumor growth over time was fit to an exponential curve (y)=X0·e^kt, where X0 represents initial tumor volume, and t stands for time in days. Doubling times (DT) were calculated as DT=(Ln2)/k.
Treatments with various Dox formulations commenced when tumor volume reached 40-90 mm^3. The mice were randomly assigned to 1 of 6 treatment groups.
On the first day of treatment, the tumor bearing mice were anesthetized with 2% isoflurane in oxygen and an indwelling catheter was placed in the internal jugular vein to facilitate multiple intravenous infusions over time. See, FIG. 1B. […] See, FIG. 1B.
Tumor volume and cardiac function were serially evaluated for up to 42 days using ultrasound imaging. Echocardiography was performed every 7 days after the 1st treatment. On day 42, or if tumor volume exceeded 1,600 mm^3 before day 42, the mice were euthanized under deep anesthesia (5% isofluorane). Tumor and heart were harvested, washed with cold saline, then were cryopreserved or fixed with 10% formalin overnight, embedding in paraffin block and sectioning for further histology analysis.

[6] = set-up: risk of cardiotoxicity occurrence: dose or concentration left out as unconfirmed; settings: cited from earlier work
heart tissue = assay: Cardiac histopathology (H&E) and fibrosis analysis (Sirius red/fast green); type: in vivo, mice; settings: for myocardial fibrosis / collagen deposition: Sirius red/fast green staining
Procedure: Routine hematoxylin and eosin (H&E) stained heart tissue slides were made for histologic examination. Sirius red/fast green staining was performed on heart tissue sections post-fixed in paraffin blocks. Twenty-three (23) Images were obtained on an Olympus IX81 microscope interfaced with a digital CCD camera (Olympus DP71) and quantitated using ImageJ 1.5 software.

Structure (SMILES): C[N+]1=C(/C=C/C=C/C=C2/N(CCCCCC(=O)NCCCCCCN)c3ccc4ccccc4c3C2(C)C)C(C)(C)c2c1ccc1ccccc21.Cl.[Cl-] [Cy5.5-NH2, Cyanine5.5-amine]
- water solubility [1]: moderate water solubility
- acid dissociation constant (pKa) ([1]; primary amine group): higher than 7
- ex vivo Cy5.5 fluorescence in organs [2]: noticeable Cy5.5 fluorescence in the heart and skeletal muscle

Structure (SMILES): COc1cccc2c1C(=O)c1c(O)c3c(c(O)c1C2=O)C[C@@](O)(C(=O)CO)C[C@@H]3O[C@H]1C[C@H](N)[C@H](O)[C@H](C)O1 [Dox, Doxorubicin]
- cell membrane integrity [3]: did not change the cell membrane integrity
- caspase-3 activity in cardiac tissue (caspase-3): higher than that in mice treated with DoxLPX+US
- cytotoxicity / cell viability ([4]; listed as Free Dox): more cytotoxicity than DoxLPX in the absence of US
- cytotoxicity / cell viability ([4]; listed as free Dox): highest cytotoxicity at 24, 48, and 72 h
- LVIDs, LVIDd change ([5]; Day 14 or Day 21 vs. Day 0): Significant increases
- mice with severely increased LV mass index ([5]; Day 21 vs. Day 0): 20.0%
- mice with severe reduction in EF ([5]; day 21): 40%
- mice with severe reduction in FS ([5]; day 21): 30%
- LV mass index change ([5]; vs. Day 0): significantly increased LV mass index on day 14
- LV mass over time ([5]; vs. baseline, up to Day 21): significantly greater than baseline by Day 14
- ejection fraction (EF) and fractional shortening (FS) over time ([5]; vs. baseline, up to Day 21): progressive decline in ejection fraction (EF) and fractional shortening (FS)
- Median survival time ± standard deviation (MCA205 sarcoma; 5 mg/kg equiv. Dox i.v., 4 treatments): 28.0 ± 7.5 days
- Median survival time ± standard deviation (MCA205 sarcoma; 5 mg/kg equiv. Dox i.v., 4 treatments, listed as free Dox): 28 days
- prolongation of median survival (MCA205 sarcoma; as compared to controls): 14%
- tumor volume as % of original (baseline) tumor volume (MCA205 sarcoma; by Day 17.5): 610%
- Tumor doubling time (MCA205 sarcoma; exponential fit of tumor volume, 5 mg/kg equiv. Dox i.v., 4 treatments): 7.1 ± 1.0**^,# Day
- risk of cardiotoxicity occurrence ([6]; clinically): 26%
- maximal tolerated cumulative dose ([6]; in vivo): 400-550 mg/m2
- myocardial fibrosis / collagen deposition (heart tissue): significantly more areas of patchy myocardial interstitial fibrosis and perivascular fibrosis
- myocardial fibrosis / collagen deposition (heart tissue; listed as free Dox): induced moderate myocardial interstitial and perivascular fibrosis
- histological damage to heart tissue (heart tissue; hematoxylin/eosin staining, accumulative dosage 20 mg/kg): disorganization of myofibrillar arrays (first left panel of Dox group) and focal cytoplasmic vacuolization
